Data on two compounds can be found in patent US5773459A, “Urea- and thiourea-type compounds” (Sugen, Inc., priority 1995, dated 1998).

The assay has as its system 3T3/IGF-1R cells. In words: IGF-1 Receptor Growth Assay (3T3/IGF-1R cells, SRB). It counts as cell-based. The procedure:
Sulforhodamine B (SRB) Assay for Adherent Cells
Sulforhodamine B assays for measuring effects of TBST compounds on cell growth were based on procedures described by Skehan et al. J. Natl. Cancer Inst. 82:1107, 1990 incorporated herein by reference in its entirety, including any drawings. Unless otherwise stated the assays were carried out aseptically as follows:
IGF-1 Receptor Growth Assay
Cell lines: 3T3/IGF-1 R (10% FBS/2 mM glutamine/DMEM) NIH 3T3 c7 (10% calf serum/2 mM glutamine/DMEM) NOTE: NIH 3T3 cells (and cells derived from them) should never be allowed to become confluent because this increases the chance of spontaneous transformation. If they show signs of being transformed (morphological changes, piling up, moving into clumps), throw them away and thaw a fresh batch.
Materials: 10% FBS/2 mM glutamine/DMEM 0.5% FBS/2 mM glutamine/DMEM 10% calf serum/2 mM glutamine/DMEM IGF-1, 5 μM in sterile PBS (Promega/Fisher cat. #G5111) DMSO, tissue culture grade (Sigma cat. #D 2650) Hits from screen 11, 100 mM in DMSO 96-well plates, flat and round bottom 8 channel pipettor and sterile tips sterile reagent reservoirs sterile tubes (1.5 or 15 ml)
Methods (carry all steps out under asceptic conditions until fixing the cells for the SRB assay):
Day 0: Cell Plating--Trypsinize and count 3T3/IGF-1R and NIH 3T3 c7 cells. Dilute in growth media to 2000 cells/200 μl and seed flat bottom 96-well plates with 200 μl/well, one plate for two compounds for each cell line.
Day 1: Compound preparation--Add DMSO to each compound to make 100 mM stock solutions.
Aliquot each compound to 3-4 sterile screw cap tubes and store at -20° C. After thawing, make sure the compound has gone completely back into solution. Throw away after 3 freeze/thaws.
3T3/IGF-1R cells--For each 96-well plate, make 15 ml of 10 nM IGF-1/0.5% FBS/2 mM glutamine/DMEM (30 μl of 5 μM IGF-1/15 ml).
Aliquot 1.5 ml 10 nM IGF-1/0.5% FBS to a sterile tube for each compound to be tested (the first time a compound is tested, use a 15 ml tube in case it is necessary to add extra medium to get it into solution).
Add 3 μl of 100 mM stock of each compound to a tube so 200 μM final. Shake or vortex until it goes into solution. If it is necessary to add additional medium, note the final concentration.
For the DMSO control, prepare 0.5 ml/plate of 0.2% DMSO/10 nM IGF-1/0.5% FBS (2 μl DMSO/ml).
For every two compounds, aliquot 130 μl 10 nM IGF-1/0.5% FBS to wells in columns 2-11 of a 96-well round bottom plate.
Add 260 μl of each compound to four wells in column 12.
Do 2-fold dilutions (130 μl) from columns 12 to 3 on each plate (column 2 will be for the untreated control), mixing thoroughly.
Remove medium from 3T3/IGF-1 R cells, one plate at a time. […]

[1] abbreviates: read-out: GROWTH DATA: 3T3/IGF1R-0.5% FBS.
Setting [2] is: read-out: GROWTH DATA: 3T3/IGF1R-10% FBS.

Where two headings read alike, the source gives them in different places.

In the case of `CC(C)S(=O)(=O)c1csc(NC(=O)Nc2cc(C(F)(F)F)cc(C(F)(F)F)c2)c1Cl` [Example Z2, N-[3-Chloro-4-(isopropylsulfonyl)thien-2-yl]-N'-(3,5-di-trifluoromethylphenyl)urea], the IC50 under setting [1] stood at 0.7 µM and the IC50 under setting [2] is 20 µM.
For `O=C(Nc1ccc(SC(F)(F)F)cc1)Nc1ccc(Oc2ccc(Cl)cc2Cl)nc1` [Example Z3] the same measures were 0.6 µM and 18 µM.
